In the kinase profiling compilation of Christmann-Franck et al. (2016):

Tests used:
Experiment in all cases: KINOMEscan competition binding
Conditions in all cases: compound 10.0 µM
[1] = molecular target: PDGFRB (human) (UniProt P09619)
[2] = molecular target: MAPK15 (human) (UniProt Q8TD08)
[3] = molecular target: MAP2K3 (human) (UniProt P46734)
[4] = molecular target: RPS6KA5 KD2 (human) (UniProt O75582)
[5] = molecular target: IKBKB (human) (UniProt O14920)
[6] = molecular target: PIK3CD (human) (UniProt O00329)
[7] = molecular target: PIP5K1A (human) (UniProt Q99755)
Chain of PIP5K1A (human) (Q99755 whole entry, looked up): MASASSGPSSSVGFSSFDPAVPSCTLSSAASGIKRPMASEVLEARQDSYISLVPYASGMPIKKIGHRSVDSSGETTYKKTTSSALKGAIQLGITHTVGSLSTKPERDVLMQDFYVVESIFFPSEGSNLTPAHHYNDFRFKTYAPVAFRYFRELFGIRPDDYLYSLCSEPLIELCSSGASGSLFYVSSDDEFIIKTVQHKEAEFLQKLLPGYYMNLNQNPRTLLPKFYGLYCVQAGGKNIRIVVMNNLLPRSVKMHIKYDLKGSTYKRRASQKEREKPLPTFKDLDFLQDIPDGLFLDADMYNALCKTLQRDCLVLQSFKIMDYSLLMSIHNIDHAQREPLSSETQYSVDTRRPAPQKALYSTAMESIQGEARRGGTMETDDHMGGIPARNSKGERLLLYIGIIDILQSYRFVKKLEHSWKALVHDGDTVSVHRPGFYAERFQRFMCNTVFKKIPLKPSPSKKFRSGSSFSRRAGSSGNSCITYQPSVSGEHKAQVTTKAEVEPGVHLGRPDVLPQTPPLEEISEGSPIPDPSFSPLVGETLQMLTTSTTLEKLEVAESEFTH

[8] = molecular target: LIMK2 (human) (UniProt P53671)
[9] = molecular target: TGFBR2 (human) (UniProt P37173)
[10] = molecular target: MST4 (human) (UniProt Q9P289)
[11] = molecular target: TXK (human) (UniProt P42681)
[12] = molecular target: FES (human) (UniProt P07332)
[13] = molecular target: TEK (human) (UniProt Q02763)
[14] = molecular target: LCK (human) (UniProt P06239)
[15] = molecular target: SIK1 (human) (UniProt P57059)
[16] = molecular target: MARK4 (human) (UniProt Q96L34)
[17] = molecular target: JAK1 JH2 pseudokinase (human) (UniProt P23458)
[18] = molecular target: ACVR2B (human) (UniProt Q13705)
[19] = molecular target: TESK1 (human) (UniProt Q15569)
[20] = molecular target: CAMK2A (human) (UniProt Q9UQM7)
[21] = molecular target: FER (human) (UniProt P16591)
[22] = molecular target: CDK11B (human) (UniProt P21127)
[23] = tested on: KIT (human), P10721 [D816V]
[24] = molecular target: MYLK4 (human) (UniProt Q86YV6)
[25] = molecular target: EPHA5 (human) (UniProt P54756)
[26] = molecular target: CSNK1G3 (human) (UniProt Q9Y6M4)
[27] = molecular target: PRKD1 (human) (UniProt Q15139)
[28] = molecular target: NEK5 (human) (UniProt Q6P3R8)
[29] = molecular target: ROCK2 (human) (UniProt O75116)
Chain of ROCK2 (human) (O75116 whole entry, looked up): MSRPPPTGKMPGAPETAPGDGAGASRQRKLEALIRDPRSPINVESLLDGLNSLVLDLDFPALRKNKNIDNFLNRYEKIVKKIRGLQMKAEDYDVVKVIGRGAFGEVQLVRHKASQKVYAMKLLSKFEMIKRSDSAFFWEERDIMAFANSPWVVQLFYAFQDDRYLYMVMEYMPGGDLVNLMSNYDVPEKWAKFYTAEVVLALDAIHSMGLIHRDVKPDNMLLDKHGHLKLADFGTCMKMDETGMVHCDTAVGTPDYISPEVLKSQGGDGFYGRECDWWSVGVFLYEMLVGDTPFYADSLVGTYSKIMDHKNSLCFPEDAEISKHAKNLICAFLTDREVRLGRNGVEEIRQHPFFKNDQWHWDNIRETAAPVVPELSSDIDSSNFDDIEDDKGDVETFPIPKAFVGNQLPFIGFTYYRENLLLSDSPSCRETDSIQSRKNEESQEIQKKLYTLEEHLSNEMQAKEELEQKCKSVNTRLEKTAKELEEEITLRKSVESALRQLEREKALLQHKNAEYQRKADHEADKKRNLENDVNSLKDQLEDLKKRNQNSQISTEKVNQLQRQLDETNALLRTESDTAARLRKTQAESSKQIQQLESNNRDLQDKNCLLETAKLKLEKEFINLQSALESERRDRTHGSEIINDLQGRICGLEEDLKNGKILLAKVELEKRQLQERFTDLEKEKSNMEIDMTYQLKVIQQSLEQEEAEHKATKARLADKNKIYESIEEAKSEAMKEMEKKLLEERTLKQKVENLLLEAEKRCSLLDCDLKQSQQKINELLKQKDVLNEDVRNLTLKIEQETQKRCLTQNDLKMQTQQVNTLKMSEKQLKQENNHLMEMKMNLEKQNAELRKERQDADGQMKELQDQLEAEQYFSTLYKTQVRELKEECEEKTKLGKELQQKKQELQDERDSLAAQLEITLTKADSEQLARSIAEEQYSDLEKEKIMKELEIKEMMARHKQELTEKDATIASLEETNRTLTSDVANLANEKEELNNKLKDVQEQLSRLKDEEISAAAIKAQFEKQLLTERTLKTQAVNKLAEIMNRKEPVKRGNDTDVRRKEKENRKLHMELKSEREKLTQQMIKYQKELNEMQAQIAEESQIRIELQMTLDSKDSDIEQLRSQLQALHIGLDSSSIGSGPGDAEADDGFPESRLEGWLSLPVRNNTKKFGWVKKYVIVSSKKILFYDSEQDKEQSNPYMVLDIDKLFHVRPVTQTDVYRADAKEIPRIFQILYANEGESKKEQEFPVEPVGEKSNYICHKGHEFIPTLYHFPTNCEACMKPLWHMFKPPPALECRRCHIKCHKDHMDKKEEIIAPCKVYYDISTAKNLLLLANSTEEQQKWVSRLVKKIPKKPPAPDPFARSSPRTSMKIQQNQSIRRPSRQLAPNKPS

[30] = molecular target: ROS1 (human) (UniProt P08922)
Chain of ROS1 (human) (P08922 whole entry, looked up): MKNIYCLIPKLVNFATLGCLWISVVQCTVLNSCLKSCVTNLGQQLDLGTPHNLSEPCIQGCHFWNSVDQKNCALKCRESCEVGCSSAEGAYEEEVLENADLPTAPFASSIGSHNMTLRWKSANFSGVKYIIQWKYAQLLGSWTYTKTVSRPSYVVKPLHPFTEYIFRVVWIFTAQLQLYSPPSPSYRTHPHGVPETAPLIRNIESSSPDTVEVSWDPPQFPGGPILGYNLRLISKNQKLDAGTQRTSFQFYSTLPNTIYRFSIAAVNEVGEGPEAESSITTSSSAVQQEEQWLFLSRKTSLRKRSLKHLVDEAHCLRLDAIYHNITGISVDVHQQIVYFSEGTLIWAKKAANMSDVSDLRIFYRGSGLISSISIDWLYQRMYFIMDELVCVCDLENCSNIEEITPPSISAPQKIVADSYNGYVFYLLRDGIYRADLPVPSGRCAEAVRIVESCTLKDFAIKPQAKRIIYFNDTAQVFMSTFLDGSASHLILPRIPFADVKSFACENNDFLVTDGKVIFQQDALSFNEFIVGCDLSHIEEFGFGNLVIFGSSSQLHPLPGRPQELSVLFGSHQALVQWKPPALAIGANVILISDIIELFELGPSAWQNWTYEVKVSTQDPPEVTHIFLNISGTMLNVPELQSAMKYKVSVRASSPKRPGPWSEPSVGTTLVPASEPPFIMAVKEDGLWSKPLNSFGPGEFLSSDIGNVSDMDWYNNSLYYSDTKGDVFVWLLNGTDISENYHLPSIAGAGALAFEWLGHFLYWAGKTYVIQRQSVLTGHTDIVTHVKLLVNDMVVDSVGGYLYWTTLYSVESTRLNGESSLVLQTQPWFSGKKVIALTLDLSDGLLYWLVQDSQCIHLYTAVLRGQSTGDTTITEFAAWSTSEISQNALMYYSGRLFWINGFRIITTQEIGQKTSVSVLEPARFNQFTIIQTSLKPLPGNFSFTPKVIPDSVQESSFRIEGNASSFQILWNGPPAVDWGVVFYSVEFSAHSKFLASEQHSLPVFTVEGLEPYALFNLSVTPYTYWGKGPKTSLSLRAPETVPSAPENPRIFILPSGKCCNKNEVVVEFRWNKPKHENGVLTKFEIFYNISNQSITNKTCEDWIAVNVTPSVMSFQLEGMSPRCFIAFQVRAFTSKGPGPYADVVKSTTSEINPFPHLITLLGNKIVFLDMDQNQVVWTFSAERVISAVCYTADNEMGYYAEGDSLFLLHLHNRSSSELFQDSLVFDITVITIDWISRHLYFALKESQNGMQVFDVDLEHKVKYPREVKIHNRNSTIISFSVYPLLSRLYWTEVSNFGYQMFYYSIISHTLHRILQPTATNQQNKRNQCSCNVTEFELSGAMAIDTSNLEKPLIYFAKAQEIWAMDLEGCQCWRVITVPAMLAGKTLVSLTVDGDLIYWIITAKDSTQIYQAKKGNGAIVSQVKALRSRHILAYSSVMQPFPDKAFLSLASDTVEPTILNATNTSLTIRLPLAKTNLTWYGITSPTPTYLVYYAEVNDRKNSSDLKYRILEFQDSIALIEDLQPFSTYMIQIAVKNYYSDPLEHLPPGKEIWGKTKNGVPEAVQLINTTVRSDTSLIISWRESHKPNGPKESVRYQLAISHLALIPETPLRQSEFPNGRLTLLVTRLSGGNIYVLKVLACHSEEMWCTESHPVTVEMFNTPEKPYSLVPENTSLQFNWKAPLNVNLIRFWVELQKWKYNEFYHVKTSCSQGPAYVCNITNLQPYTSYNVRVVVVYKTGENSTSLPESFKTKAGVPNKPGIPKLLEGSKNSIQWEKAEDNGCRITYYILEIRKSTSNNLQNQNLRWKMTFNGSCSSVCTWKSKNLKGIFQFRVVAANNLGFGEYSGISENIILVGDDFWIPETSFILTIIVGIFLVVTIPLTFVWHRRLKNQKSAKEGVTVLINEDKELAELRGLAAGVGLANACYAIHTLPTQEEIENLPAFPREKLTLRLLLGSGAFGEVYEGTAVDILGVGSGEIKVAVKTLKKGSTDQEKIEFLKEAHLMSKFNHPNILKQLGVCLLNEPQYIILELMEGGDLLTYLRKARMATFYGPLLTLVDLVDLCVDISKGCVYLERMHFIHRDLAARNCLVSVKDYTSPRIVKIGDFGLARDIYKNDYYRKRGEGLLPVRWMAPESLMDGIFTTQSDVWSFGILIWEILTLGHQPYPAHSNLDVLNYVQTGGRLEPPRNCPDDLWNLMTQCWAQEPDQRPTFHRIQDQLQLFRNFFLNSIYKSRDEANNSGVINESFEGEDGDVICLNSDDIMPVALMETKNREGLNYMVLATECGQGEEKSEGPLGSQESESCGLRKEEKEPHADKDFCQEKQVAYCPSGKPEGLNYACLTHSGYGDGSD

[31] = molecular target: MAPK6 (human) (UniProt Q16659)
[32] = molecular target: MAP3K3 (human) (UniProt Q99759)
Chain of MAP3K3 (human) (Q99759 whole entry, looked up): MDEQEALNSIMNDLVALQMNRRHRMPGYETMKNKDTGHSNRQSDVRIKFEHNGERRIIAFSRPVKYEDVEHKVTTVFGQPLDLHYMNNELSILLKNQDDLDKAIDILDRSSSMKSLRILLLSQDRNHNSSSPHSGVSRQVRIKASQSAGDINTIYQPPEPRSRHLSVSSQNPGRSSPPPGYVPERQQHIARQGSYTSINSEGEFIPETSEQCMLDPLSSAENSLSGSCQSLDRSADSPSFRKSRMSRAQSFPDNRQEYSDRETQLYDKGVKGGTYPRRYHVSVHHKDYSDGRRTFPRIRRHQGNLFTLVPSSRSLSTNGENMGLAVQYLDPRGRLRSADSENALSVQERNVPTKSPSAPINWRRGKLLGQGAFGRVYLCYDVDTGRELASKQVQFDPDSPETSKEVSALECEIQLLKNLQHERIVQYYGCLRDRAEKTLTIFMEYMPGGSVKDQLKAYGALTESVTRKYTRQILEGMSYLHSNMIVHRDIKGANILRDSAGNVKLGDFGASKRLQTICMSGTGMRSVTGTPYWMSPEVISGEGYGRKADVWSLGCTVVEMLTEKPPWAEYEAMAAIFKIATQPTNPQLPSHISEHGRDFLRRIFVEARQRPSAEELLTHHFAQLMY

[33] = molecular target: NUAK2 (human) (UniProt Q9H093)
[34] = molecular target: MAP3K12 (human) (UniProt Q12852)
[35] = molecular target: PAK2 (human) (UniProt Q13177)
[36] = molecular target: AXL (human) (UniProt P30530)
[37] = molecular target: GSK3A (human) (UniProt P49840)
[38] = molecular target: ITK (human) (UniProt Q08881)
[39] = molecular target: PRKG2 (human) (UniProt Q13237)
[40] = molecular target: TEC (human) (UniProt P42680)

| Structure (SMILES) | kinase still bound, per cent of control [1] [%] | kinase still bound, per cent of control [2] [%] | kinase still bound, per cent of control [3] [%] | kinase still bound, per cent of control [4] [%] | kinase still bound, per cent of control [5] [%] | kinase still bound, per cent of control [6] [%] | kinase still bound, per cent of control [7] [%] | kinase still bound, per cent of control [8] [%] | kinase still bound, per cent of control [9] [%] | kinase still bound, per cent of control [10] [%] | kinase still bound, per cent of control [11] [%] | kinase still bound, per cent of control [12] [%] | kinase still bound, per cent of control [13] [%] | kinase still bound, per cent of control [14] [%] | kinase still bound, per cent of control [15] [%] | kinase still bound, per cent of control [16] [%] | kinase still bound, per cent of control [17] [%] | kinase still bound, per cent of control [18] [%] | kinase still bound, per cent of control [19] [%] | kinase still bound, per cent of control [20] [%] | also measured |
| --- | --- | --- | --- | --- | --- | --- | --- | --- | --- | --- | --- | --- | --- | --- | --- | --- | --- | --- | --- | --- | --- |
| OCCCNc1cc(-c2ccnc(Nc3cccc(Cl)c3)n2)ccn1 | 100 | 2 | 100 | 100 | 100 | 100 | 100 | 100 | 100 | 100 | 100 | 100 | 100 | 100 | 100 | 100 | 100 | 100 | 100 | 100 | kinase still bound, per cent of control [21]: 100%; kinase still bound, per cent of control [22]: 100%; kinase still bound, per cent of control [23]: 100%; kinase still bound, per cent of control [24]: 100%; kinase still bound, per cent of control [25]: 100%; kinase still bound, per cent of control [26]: 100%; kinase still bound, per cent of control [27]: 100%; kinase still bound, per cent of control [28]: 100%; kinase still bound, per cent of control [29]: 100%; kinase still bound, per cent of control [30]: 100%; kinase still bound, per cent of control [31]: 100%; kinase still bound, per cent of control [32]: 100%; kinase still bound, per cent of control [33]: 100%; kinase still bound, per cent of control [34]: 100%; kinase still bound, per cent of control [35]: 100%; kinase still bound, per cent of control [36]: 100%; kinase still bound, per cent of control [37]: 20%; kinase still bound, per cent of control [38]: 100%; kinase still bound, per cent of control [39]: 100%; kinase still bound, per cent of control [40]: 100% |
| C=CC(=O)Nc1cccc(Nc2nc(N[C@H]3CC[C@H](N(C)C)CC3)nc3c2ncn3C(C)C)c1 | 8.4 | 75 | 77 | 95 | 76 | 92 | 36 | 100 | 100 | 16 | 48 | 85 | 95 | 38 | 85 | 94 | 76 | 91 | 93 | 34 | kinase still bound, per cent of control [21]: 74%; kinase still bound, per cent of control [22]: 100%; kinase still bound, per cent of control [23]: 10%; kinase still bound, per cent of control [24]: 88%; kinase still bound, per cent of control [25]: 76%; kinase still bound, per cent of control [26]: 8.2%; kinase still bound, per cent of control [27]: 100%; kinase still bound, per cent of control [28]: 94%; kinase still bound, per cent of control [29]: 10%; kinase still bound, per cent of control [30]: 99%; kinase still bound, per cent of control [31]: 100%; kinase still bound, per cent of control [32]: 2.7%; kinase still bound, per cent of control [33]: 45%; kinase still bound, per cent of control [34]: 71%; kinase still bound, per cent of control [35]: 61%; kinase still bound, per cent of control [36]: 40%; kinase still bound, per cent of control [37]: 100%; kinase still bound, per cent of control [38]: 65%; kinase still bound, per cent of control [39]: 96%; kinase still bound, per cent of control [40]: 100% |
